Experiment [1] has as its target T1, Aminopeptidase N (Plasmodium falciparum FcB1/Columbia, UniProt O96935).
T1 sequence (O96935 whole entry): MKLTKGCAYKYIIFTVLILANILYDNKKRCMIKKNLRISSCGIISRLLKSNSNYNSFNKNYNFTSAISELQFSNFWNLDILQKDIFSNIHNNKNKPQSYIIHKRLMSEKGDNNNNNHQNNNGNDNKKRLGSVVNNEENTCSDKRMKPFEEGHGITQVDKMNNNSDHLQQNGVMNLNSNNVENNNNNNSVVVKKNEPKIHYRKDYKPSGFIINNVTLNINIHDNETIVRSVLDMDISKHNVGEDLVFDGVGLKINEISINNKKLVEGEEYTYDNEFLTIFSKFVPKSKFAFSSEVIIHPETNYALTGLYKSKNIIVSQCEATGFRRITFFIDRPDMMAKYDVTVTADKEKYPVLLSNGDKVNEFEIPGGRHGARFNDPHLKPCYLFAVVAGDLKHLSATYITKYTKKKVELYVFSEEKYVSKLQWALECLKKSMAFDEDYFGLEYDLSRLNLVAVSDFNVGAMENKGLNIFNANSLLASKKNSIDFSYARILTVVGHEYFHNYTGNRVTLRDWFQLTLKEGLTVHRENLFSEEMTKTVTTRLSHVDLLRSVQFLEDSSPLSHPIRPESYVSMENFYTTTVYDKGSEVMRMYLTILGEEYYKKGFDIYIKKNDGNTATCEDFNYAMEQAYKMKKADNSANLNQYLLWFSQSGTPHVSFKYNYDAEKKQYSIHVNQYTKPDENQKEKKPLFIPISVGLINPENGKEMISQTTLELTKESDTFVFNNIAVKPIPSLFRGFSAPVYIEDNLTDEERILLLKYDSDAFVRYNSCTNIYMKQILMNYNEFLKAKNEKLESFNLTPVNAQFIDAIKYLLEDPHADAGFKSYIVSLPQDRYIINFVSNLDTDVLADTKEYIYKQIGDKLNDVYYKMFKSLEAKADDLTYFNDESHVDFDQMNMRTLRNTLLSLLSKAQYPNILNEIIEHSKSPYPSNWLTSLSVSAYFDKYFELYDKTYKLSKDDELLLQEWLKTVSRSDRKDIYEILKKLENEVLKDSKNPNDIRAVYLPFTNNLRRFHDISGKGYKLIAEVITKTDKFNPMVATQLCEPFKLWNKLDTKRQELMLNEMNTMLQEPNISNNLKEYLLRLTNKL
Description: P. falciparum M1AAP inhibitors, biochemical, fluorogenic H-Leu-NHMec substrate, 1536-well (AID 1445). Set-up: species or system Plasmodium falciparum 3D7, 3D7.

For experiment [2], the target named is Testis-specific serine/threonine-protein kinase 2 (Homo sapiens, UniProt Q96PF2). The format is functional.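 Further: part of the Navigating the Kinome panel, target entry STK22B.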
Experiment [3] addresses Serine/threonine-protein kinase Chk2 (Homo sapiens, UniProt O96017). The format is functional.
Experiment [4] addresses Calcium/calmodulin-dependent protein kinase type II subunit delta (Homo sapiens, UniProt Q13557). The format is functional.
Experiment [5] has as its target Serine/threonine-protein kinase N2 (Homo sapiens, UniProt Q16513). Type of experiment: functional.
Experiment [6] concerns the target Ephrin type-A receptor 2 (Homo sapiens, UniProt P29317). The format is functional.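 Further: EPHA2 tested as one member of a kinome-wide kinase panel.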
For experiment [7], the target named is Serine/threonine-protein kinase MRCK alpha (Homo sapiens, UniProt Q5VT25). Type of experiment: functional.
The target of experiment [8] is T2, Protein RecA (Mycobacterium tuberculosis, UniProt P9WHJ3).
T2 sequence (P9WHJ3 whole entry): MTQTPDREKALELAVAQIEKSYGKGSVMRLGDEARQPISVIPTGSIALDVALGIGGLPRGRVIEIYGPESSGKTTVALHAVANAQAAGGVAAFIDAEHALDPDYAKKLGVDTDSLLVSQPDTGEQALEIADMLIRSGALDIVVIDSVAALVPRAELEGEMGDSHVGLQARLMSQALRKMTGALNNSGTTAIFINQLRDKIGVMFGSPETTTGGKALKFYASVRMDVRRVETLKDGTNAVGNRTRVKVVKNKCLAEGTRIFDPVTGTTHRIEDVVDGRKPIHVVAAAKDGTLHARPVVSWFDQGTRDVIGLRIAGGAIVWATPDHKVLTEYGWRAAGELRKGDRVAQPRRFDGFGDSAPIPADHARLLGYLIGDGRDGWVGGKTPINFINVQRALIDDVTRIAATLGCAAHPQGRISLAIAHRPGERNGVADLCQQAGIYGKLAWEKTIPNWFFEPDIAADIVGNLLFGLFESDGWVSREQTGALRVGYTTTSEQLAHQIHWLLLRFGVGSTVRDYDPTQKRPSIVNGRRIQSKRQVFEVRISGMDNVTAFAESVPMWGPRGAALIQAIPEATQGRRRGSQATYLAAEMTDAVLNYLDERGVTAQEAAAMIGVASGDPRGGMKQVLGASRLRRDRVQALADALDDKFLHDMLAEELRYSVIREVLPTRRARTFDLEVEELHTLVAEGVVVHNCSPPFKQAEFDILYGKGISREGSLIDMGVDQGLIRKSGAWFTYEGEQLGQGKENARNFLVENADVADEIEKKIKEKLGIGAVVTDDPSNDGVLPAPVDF
Description: Fluorescence Cell-Free Homogeneous Dose Retest to Identify Inhibitors of RecA-Intein Splicing Activity. [Related pubchem assays (depositor defined):AID2097, AID2223, AID489010, AID492950]. The format is functional.

Here are results for three compounds from ChEMBL document CHEMBL1201862, “PubChem BioAssay data set” (2004).

Activity calls are given as the source filed them. Bounds are passed on as bounds.

Chain of Serine/threonine-protein kinase MRCK alpha (Q5VT25 whole entry): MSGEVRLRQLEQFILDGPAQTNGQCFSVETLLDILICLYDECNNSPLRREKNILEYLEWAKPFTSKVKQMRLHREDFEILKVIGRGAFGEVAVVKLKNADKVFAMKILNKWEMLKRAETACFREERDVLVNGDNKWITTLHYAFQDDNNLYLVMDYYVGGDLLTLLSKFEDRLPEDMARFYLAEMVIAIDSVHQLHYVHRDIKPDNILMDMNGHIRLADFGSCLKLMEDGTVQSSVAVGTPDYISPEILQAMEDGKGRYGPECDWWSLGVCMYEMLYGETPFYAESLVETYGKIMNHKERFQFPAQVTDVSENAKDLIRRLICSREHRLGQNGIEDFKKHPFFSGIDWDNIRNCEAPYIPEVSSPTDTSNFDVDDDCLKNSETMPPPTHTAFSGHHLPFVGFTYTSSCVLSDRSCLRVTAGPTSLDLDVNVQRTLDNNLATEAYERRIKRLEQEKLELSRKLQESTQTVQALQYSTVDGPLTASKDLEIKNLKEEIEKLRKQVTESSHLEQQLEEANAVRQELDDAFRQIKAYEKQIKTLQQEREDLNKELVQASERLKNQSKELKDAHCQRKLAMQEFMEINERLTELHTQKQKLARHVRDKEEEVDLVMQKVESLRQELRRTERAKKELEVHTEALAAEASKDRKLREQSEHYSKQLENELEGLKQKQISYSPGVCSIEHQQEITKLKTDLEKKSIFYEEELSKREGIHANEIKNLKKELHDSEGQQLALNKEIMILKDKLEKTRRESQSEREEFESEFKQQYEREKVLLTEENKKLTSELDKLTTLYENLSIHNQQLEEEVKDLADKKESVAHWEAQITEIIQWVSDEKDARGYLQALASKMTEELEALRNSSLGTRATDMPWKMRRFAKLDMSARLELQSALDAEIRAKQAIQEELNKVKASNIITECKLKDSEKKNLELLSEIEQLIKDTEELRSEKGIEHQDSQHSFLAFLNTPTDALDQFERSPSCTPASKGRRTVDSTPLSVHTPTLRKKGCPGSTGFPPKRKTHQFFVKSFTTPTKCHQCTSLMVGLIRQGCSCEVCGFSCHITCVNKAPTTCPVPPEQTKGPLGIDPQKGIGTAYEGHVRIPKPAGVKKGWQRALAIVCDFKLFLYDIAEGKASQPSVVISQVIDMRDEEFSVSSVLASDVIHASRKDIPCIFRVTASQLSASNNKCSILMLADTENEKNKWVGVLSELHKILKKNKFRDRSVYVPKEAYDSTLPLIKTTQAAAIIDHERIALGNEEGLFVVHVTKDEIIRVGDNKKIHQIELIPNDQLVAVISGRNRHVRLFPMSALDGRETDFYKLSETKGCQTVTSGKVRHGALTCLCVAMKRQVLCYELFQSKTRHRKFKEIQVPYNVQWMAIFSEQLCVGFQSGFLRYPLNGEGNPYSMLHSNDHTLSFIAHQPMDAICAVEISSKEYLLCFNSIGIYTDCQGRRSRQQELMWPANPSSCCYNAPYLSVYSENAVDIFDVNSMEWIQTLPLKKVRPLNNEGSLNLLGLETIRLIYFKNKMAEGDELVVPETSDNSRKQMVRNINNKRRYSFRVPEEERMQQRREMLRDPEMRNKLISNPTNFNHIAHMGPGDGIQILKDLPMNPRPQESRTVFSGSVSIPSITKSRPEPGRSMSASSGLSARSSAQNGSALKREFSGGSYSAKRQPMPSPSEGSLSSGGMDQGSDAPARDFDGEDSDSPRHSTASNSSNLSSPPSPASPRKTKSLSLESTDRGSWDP
Chain of Calcium/calmodulin-dependent protein kinase type II subunit delta (Q13557 whole entry): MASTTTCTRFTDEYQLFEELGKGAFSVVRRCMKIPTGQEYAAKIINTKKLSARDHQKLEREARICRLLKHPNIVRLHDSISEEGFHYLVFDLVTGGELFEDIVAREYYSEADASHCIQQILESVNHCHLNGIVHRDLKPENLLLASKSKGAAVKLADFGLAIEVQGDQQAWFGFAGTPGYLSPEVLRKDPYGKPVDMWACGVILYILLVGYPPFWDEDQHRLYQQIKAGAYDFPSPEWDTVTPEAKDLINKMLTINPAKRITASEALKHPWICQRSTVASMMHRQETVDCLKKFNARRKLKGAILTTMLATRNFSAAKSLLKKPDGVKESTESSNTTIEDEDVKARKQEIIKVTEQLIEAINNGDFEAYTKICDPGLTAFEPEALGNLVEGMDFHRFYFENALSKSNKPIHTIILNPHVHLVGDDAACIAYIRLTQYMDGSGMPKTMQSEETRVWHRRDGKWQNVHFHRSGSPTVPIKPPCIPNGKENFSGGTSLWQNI
Chain of Testis-specific serine/threonine-protein kinase 2 (Q96PF2 whole entry): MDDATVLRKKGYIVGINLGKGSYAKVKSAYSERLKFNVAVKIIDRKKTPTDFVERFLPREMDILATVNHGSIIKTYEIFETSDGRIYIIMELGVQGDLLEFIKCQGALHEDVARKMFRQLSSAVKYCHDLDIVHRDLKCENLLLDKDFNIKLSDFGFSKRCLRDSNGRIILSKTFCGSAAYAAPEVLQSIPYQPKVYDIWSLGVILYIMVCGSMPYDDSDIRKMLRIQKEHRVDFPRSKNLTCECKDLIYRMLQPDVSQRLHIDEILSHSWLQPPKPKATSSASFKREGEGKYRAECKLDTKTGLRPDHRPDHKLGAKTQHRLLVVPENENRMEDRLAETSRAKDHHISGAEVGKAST
Chain of Serine/threonine-protein kinase Chk2 (O96017 whole entry): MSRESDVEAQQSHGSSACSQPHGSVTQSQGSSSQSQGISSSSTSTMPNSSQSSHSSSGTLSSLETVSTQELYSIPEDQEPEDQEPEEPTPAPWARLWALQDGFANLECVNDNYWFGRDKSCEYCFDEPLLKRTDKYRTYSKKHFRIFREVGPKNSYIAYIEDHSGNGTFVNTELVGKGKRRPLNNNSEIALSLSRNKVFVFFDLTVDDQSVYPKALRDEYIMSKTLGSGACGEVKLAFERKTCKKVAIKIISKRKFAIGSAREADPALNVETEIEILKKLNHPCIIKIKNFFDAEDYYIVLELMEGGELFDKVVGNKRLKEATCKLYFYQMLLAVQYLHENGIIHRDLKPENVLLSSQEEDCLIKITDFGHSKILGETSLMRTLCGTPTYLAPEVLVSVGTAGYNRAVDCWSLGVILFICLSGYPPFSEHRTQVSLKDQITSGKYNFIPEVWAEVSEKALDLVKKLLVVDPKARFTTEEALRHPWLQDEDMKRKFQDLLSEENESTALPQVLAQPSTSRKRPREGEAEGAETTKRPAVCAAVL
Chain of Ephrin type-A receptor 2 (P29317 whole entry): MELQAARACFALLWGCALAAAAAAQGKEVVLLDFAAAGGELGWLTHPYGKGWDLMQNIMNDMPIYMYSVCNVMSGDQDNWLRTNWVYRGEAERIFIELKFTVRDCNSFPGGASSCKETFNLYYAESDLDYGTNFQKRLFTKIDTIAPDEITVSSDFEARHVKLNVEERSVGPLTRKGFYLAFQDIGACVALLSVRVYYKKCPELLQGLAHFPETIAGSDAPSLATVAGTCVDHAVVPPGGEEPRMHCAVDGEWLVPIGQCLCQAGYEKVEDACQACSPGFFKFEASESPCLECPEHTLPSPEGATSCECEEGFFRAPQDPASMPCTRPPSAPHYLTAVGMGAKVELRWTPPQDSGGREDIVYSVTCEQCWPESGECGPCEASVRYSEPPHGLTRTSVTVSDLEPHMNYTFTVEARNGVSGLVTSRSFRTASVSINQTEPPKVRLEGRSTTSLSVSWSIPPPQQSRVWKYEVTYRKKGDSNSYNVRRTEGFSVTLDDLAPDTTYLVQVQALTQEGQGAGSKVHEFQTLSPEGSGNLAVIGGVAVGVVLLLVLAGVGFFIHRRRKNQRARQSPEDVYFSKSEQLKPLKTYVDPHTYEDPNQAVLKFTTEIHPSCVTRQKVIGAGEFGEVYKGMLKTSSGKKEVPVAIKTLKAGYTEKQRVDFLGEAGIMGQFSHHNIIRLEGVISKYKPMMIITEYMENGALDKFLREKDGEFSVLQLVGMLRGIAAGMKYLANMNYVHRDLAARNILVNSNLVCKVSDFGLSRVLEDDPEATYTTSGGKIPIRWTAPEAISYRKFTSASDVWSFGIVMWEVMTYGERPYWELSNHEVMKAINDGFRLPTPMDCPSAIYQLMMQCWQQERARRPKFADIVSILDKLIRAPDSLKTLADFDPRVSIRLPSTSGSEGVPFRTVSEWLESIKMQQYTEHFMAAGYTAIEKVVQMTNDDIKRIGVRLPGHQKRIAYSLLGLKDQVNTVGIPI
Chain of Serine/threonine-protein kinase N2 (Q16513 whole entry): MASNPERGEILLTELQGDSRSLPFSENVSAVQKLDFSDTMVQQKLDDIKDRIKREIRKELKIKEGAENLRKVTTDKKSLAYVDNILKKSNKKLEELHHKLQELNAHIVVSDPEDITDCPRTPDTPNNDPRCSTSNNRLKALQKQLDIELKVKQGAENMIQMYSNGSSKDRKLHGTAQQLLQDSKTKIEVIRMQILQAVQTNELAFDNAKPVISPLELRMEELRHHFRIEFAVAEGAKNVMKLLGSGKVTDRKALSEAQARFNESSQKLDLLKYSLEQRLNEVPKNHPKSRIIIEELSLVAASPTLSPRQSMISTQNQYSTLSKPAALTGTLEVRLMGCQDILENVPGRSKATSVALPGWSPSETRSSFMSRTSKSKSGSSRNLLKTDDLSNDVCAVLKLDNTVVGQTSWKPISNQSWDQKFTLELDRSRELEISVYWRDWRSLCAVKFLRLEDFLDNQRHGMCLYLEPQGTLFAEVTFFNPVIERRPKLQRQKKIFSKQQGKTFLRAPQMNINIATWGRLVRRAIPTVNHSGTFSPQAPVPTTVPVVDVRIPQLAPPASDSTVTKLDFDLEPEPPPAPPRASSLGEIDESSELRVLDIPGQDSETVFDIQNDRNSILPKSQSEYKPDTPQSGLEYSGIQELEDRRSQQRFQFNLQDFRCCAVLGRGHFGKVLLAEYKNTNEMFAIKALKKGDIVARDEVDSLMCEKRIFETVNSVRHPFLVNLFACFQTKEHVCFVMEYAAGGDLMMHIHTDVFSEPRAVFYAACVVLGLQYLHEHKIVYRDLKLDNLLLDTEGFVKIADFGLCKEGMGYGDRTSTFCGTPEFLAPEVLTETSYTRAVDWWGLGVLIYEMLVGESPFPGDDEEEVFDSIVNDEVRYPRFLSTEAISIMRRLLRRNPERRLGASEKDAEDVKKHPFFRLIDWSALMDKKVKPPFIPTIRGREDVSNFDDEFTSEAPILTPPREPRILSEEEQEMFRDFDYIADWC

By IC50 is commonly meant the concentration at which inhibition is half-maximal. With `CC(/C=C1\SC(=S)N(NS(=O)(=O)c2ccc(C)cc2)C1=O)=C\c1ccccc1`, the IC50 in experiment [1] was 64 µM (active).
By Ki is commonly meant the equilibrium dissociation constant of an inhibitor or competing ligand from its target. Usually pKi stands for the negative decadic logarithm of the Ki, by convention in mol/L. For `CN1CCC(c2c(O)cc(O)c3c(=O)cc(-c4ccccc4Cl)oc23)C(O)C1` (stereo not given), the Ki in experiment [2] is > 1.58 µM (inactive); in experiment [3], > 1.58 µM (inactive); in experiment [4], 2 µM (active); in experiment [5], 5.01 µM (active); in experiment [6], 2 µM (active); in experiment [7] it was 0.631 µM (active). Further, the pKi in experiment [4] is 5.7; in experiment [7], 6.2.
The EC50 is the midpoint of the concentration-response curve. As to `Cc1ccc(NC2=C(NCCO)C(=O)c3ccccc3C2=O)cc1`, the EC50 in experiment [8] was 11.7 µM (active).
